Patent publication US12180187B2, “1-phenyl-5-azinylpyrazolyl-3-oxyalkyl acids and their use for controlling unwanted plant growth” (BAYER AKTIENGESELLSCHAFT, priority 2019, dated 2024)

Legend:
AMARE = assay: Post-emergence action at 320 g/ha against AMARE; format: in vivo, Amaranthus retroflexus; details: visual rating about 3 weeks after treatment vs untreated controls
Source text: Accordingly, the compounds of the invention have good herbicidal action against a broad spectrum of weed grasses and broad-leaved weeds and are therefore suitable for controlling unwanted vegetation by the post-emergence method. • b) Seeds of monocotyledonous and dicotyledonous weeds and crop plants are placed in sandy loam in plastic or organic planting pots, covered with soil and cultivated in a greenhouse under controlled growth conditions. 2 to 3 weeks after sowing, the test plants are treated at the one-leaf stage. The compounds of the invention, formulated in the form of wettable powders (WP) or as emulsion concentrates (EC), are then sprayed onto the green parts of the plants as aqueous suspension or emulsion with addition of 0.5% additive at a water application rate of 600 l/ha (converted). After the test plants have been kept in the greenhouse under optimum growth conditions for about 3 weeks, the activity of the preparations is rated visually in comparison to untreated controls. For example, 100% activity=the plants have died, 0% activity=like control plants. Tables 39 to 49 below show the effects of selected compounds of the general formula (I) according to Tables 1 and 2 on various harmful plants and at an application rate corresponding to 320 g/ha, which were obtained by the experimental procedure mentioned above.

DIGSA = assay: Post-emergence action against DIGSA, 1.28 kg/ha; format: in vivo, Digitaria sanguinalis; details: dosage 1280 g/ha, visual rating about 3 weeks after treatment vs untreated controls
Method in brief: (§1)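 Percent activity was scored visually ~3 wk post-spray relative to untreated plants. Treatment was post-emergence at the one-leaf stage using WP/EC in water with 0.5% additive (600 L/ha).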

SETVI = assay: Post-emergence action at 320 g/ha against SETVI; format: in vivo, Setaria viridis; details: visual rating about 3 weeks after treatment vs untreated controls
Method in brief: (§2)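 Herbicidal effect is scored by eye about 3 weeks after a foliar spray and expressed as percent activity, with untreated plants as 0% and dead plants as 100%. Treatment is applied at the one-leaf stage of greenhouse-grown, soil-sown plants, at a water rate of 600 l/ha containing 0.5% additive.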

VERPE [1] = assay: Post-emergence action against VERPE, 1.28 kg/ha; format: in vivo, Veronica persica; details: dosage 1280 g/ha, visual rating about 3 weeks after treatment vs untreated controls (100% = plants died); for pest or weed control at 1280 g/ha: Veronica persica, 504 h
Method in brief: as §1

LOLRI [2] = assay: Pre-emergence action at 320 g/ha against LOLRI; format: in vivo, Lolium rigidum; details: visual scoring after about 3 weeks vs untreated controls; for pest or weed control at 320 g/ha: Lolium rigidum, 504 h
Method in brief: (§3)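 Visual % scoring at about 3 weeks post-treatment against untreated pots (0% = like control, 100% = dead), greenhouse-grown. Compounds applied at 320 g/ha as aqueous WP/EC suspension or emulsion plus 0.5% additive, 600 l/ha water, onto covering soil of freshly sown pots before emergence.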

ALOMY [3] = assay: Post-emergence action against ALOMY, 1.28 kg/ha; format: in vivo, Alopecurus myosuroides; details: dosage 1280 g/ha, visual rating about 3 weeks after treatment vs untreated controls
Method in brief: as §1

ABUTH [4] = assay: Pre-emergence action against ABUTH, 1280 g/ha; format: in vivo, Abutilon theophrasti; details: scored visually after about 3 weeks vs untreated controls (100% = plants have died)
Method in brief: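 Weed seeds sown in sandy loam in pots, covered with soil; compound as WP or EC applied to soil surface as aqueous suspension/emulsion with 0.5% additive at 600 L/ha water. Greenhouse, good growth conditions; visual % damage vs untreated controls after about 3 weeks (100% = plants dead, 0% = like control).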

ECHGC = assay: Pre-emergence action at 320 g/ha against ECHGC; format: in vivo, Echinochloa crus-galli; details: visual scoring after about 3 weeks vs untreated controls
Method in brief: as §3

VERPE [5] = assay: Pre-emergence action at 320 g/ha against VERPE; format: in vivo, Veronica persica; details: visual scoring after about 3 weeks vs untreated controls; for pest or weed control at 320 g/ha: Veronica persica, 504 h
Method in brief: as §3

LOLRI [6] = assay: Post-emergence action against LOLRI, 1.28 kg/ha; format: in vivo, Lolium rigidum; details: dosage 1280 g/ha, visual rating about 3 weeks after treatment vs untreated controls
Method in brief: as §1

VIOTR = assay: Pre-emergence action at 320 g/ha against VIOTR; format: in vivo, Viola tricolor; details: dosage 320 g/ha; for pest or weed control at 320 g/ha: Viola tricolor, 504 h
Method in brief: as §3

MATIN [7] = assay: Pre-emergence action at 320 g/ha against MATIN; format: in vivo, Tripleurospermum inodorum (Matricaria inodora); details: visual scoring after about 3 weeks vs untreated controls; for pest or weed control at 320 g/ha: Tripleurospermum inodorum, 504 h
Method in brief: as §3

MATIN [8] = assay: Post-emergence action against MATIN, 1.28 kg/ha; format: in vivo, Tripleurospermum inodorum (Matricaria inodora); details: dosage 1280 g/ha, visual rating about 3 weeks after treatment vs untreated controls (100% = plants died)
Method in brief: as §1

ALOMY [9] = assay: Post-emergence action against ALOMY, 320 g/ha; format: in vivo, Alopecurus myosuroides; details: dosage 320 g/ha, visual rating about 3 weeks after treatment vs untreated controls (100% = plants died)
Method in brief: as §2

ABUTH [10] = assay: Post-emergence action against ABUTH, 1.28 kg/ha; format: in vivo, Abutilon theophrasti; details: dosage 1280 g/ha, visual rating about 3 weeks after treatment vs untreated controls (100% = plants died)
Method in brief: as §1

POLCO = assay: Post-emergence action at 320 g/ha against POLCO; format: in vivo, Fallopia convolvulus (Polygonum convolvulus); details: visual rating about 3 weeks after treatment vs untreated controls; for pest or weed control at 320 g/ha: Fallopia convolvulus, 504 h
Method in brief: as §2

SMILES	Post-emergence action against AMARE in % (AMARE) [%]	Post-emergence action against DIGSA (DIGSA) [%]	Post-emergence action against SETVI in % (SETVI) [%]	Post-emergence action against VERPE (VERPE [1]) [%]	Pre-emergence action against LOLRI in % (LOLRI [2]) [%]	Post-emergence action against ALOMY (ALOMY [3]) [%]	Pre-emergence action against ABUTH (ABUTH [4]) [%]	Pre-emergence action against ECHGC in % (ECHGC) [%]	Pre-emergence action against VERPE in % (VERPE [5]) [%]	Post-emergence action against LOLRI (LOLRI [6]) [%]	Pre-emergence action against VIOTR in % (VIOTR) [%]	Pre-emergence action against MATIN in % (MATIN [7]) [%]	Post-emergence action against MATIN (MATIN [8]) [%]	Post-emergence action against ALOMY (ALOMY [9]) [%]	Post-emergence action against ABUTH (ABUTH [10]) [%]	further results
C[C@@H](Oc1nn(-c2ccccc2F)c(-c2cncnc2)c1Br)C(=O)O [VI-012]	80	90	90	90	90	100	90	80	100	90	100	90				
COC(=O)[C@@H](C)Oc1nn(-c2ccccc2)c(-c2cncnc2)c1Br [VI-013]	90	90	90	100	90	100	90	90		90	100	90	100	80	90	
COC(=O)COc1nn(-c2ccc(F)cc2)c(-c2ccc(F)nc2)c1Br [VII-002]			80					90	100			100	90	100	90	Post-emergence action against POLCO in % (POLCO): 80%
COC(=O)[C@@H](C)Oc1nn(-c2ccccc2)c(-c2cccnc2)c1Br [VII-008]	90		100	100	100	100	90	80	100	100	100	100	90	100	90	
COC(=O)C(C)Oc1nn(-c2ccccc2)c(-c2ccc(F)nc2)c1Cl (stereo not shown) [VII-023, Methyl 2-{[4-chloro-5-(6-fluoropyridin-3-yl)-1-phenyl-1H-pyrazol-3-yl]oxy}propanoate]		90						90		100			90	90		pest or weed control at 320 g/ha (AMARE; Amaranthus retroflexus, 504 h): 90%; pest or weed control at 1280 g/ha (VERPE [1]): 100%; pest or weed control at 320 g/ha (LOLRI [2]): 100%; pest or weed control at 320 g/ha (VERPE [5]): 80%; pest or weed control at 320 g/ha (POLCO): 90%; pest or weed control at 320 g/ha (VIOTR): 100%; pest or weed control at 320 g/ha (MATIN [7]): 90%
COC(=O)COc1nn(-c2ccc(F)cc2)c(-c2cccnc2)c1Br [VII-028]	80		80	90				80	100	90	100	80	90	80	90	
CCC(Oc1nn(-c2ccccc2F)c(-c2ccc(F)nc2)c1Br)C(=O)OC (stereo not shown) [VII-029]		100		90	90	100	90		100	100	100	90		100		Post-emergence action against POLCO in % (POLCO): 80%
COC(=O)COc1nn(-c2cc(F)ccc2F)c(-c2ccc(F)nc2)c1Br [VII-089]	80	100		90	100	100		80	100	100	100	90	90	90	90	
COC(=O)[C@@H](C)Oc1nn(-c2cc(F)ccc2F)c(-c2cncc(F)c2)c1Br [VII-132]	90	100		90	100	100	90	90	100		100	90	90	90	90	
CCOC(=O)COc1nn(-c2ccccc2F)c(-c2ccnc(F)c2)c1Br [VIII-003, Ethyl {[4-bromo-1-(2-fluorophenyl)-5-(2-fluoropyridin-4-yl)-1H-pyrazol-3-yl]oxy}acetate]								90		100				90	90	pest or weed control at 1280 g/ha (VERPE [1]): 90%; pest or weed control at 320 g/ha (LOLRI [2]): 90%; pest or weed control at 320 g/ha (VERPE [5]): 90%; pest or weed control at 320 g/ha (POLCO): 80%; pest or weed control at 320 g/ha (VIOTR): 100%; pest or weed control at 320 g/ha (MATIN [7]): 90%
COC(=O)[C@@H](C)Oc1nn(-c2ccccc2F)c(-c2ccnc(F)c2)c1Br [VIII-006]	80	90	90	90	100	100	90			100	100	90	100	100		
